Experimental findings from patent publication US12570671B2 (BRISTOL-MYERS SQUIBB COMPANY, priority 2020, dated 2026) are described below.

Molecules are shown by their SMILES. Some results are limits rather than exact numbers.

One test addresses Ikaros (Homo sapiens, UniProt Q13422+Q96SW2). In words: Helios Cellular Degradation Assay (Ikaros readout). The format is cell-based. Further details: endogenous in cells; host or cells: Jurkat. The note with it: Jurkat cells, 72 h incubation, Ikaros-Alexa488 antibody staining, flow cytometry; read-out: Ikaros Jurkat IC50. The method in brief: (§1)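 Jurkat cells (80,000/well, RPMI+10% FBS) were treated with compound for 72 h at 37° C. After fixation and permeabilization they were stained with fluorescent antibodies to Helios, Ikaros and Aiolos. Intracellular protein levels were quantified by flow cytometry.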
On the technique in general: In flow cytometry, cells or beads pass a laser one at a time.

The next test deals with Helios (Homo sapiens, UniProt Q96SW2+Q9UKS7). In words: Helios Cellular Degradation Assay (Helios readout). Further details: endogenous in cells; host or cells: Jurkat. The note with it: Jurkat cells, 72 h incubation, Helios-PE antibody staining, flow cytometry; read-out: Helios Jurkat IC50. Type of test: cell-based. The essentials: as §1
Chain of Helios (Q9UKS7 whole entry): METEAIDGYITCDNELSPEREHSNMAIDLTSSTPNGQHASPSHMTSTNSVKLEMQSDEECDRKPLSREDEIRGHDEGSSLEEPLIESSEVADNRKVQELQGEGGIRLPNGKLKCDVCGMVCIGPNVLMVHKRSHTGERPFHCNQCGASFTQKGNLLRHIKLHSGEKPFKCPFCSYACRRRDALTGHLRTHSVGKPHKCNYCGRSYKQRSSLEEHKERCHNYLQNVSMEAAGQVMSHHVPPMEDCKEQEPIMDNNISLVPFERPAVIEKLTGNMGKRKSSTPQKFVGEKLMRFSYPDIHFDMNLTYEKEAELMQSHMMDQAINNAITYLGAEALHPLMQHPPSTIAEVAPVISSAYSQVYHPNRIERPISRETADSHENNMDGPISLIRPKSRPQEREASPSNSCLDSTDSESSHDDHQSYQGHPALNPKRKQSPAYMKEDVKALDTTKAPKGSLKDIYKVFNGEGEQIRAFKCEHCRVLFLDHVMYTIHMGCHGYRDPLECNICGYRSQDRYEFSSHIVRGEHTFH
Chain of Helios (Q96SW2 whole entry): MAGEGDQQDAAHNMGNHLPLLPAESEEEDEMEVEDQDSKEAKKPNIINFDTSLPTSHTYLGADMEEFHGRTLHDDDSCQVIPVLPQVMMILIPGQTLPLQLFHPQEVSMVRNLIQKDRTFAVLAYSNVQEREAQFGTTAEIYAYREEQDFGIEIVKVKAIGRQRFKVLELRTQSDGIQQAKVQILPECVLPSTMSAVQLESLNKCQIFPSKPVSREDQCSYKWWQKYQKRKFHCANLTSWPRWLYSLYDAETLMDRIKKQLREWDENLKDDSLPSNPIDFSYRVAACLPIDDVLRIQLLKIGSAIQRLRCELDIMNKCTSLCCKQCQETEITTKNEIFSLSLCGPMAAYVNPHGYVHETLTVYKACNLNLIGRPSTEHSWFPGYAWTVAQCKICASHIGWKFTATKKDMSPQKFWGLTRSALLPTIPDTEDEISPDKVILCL
Chain of Helios (Q16531 whole entry partner): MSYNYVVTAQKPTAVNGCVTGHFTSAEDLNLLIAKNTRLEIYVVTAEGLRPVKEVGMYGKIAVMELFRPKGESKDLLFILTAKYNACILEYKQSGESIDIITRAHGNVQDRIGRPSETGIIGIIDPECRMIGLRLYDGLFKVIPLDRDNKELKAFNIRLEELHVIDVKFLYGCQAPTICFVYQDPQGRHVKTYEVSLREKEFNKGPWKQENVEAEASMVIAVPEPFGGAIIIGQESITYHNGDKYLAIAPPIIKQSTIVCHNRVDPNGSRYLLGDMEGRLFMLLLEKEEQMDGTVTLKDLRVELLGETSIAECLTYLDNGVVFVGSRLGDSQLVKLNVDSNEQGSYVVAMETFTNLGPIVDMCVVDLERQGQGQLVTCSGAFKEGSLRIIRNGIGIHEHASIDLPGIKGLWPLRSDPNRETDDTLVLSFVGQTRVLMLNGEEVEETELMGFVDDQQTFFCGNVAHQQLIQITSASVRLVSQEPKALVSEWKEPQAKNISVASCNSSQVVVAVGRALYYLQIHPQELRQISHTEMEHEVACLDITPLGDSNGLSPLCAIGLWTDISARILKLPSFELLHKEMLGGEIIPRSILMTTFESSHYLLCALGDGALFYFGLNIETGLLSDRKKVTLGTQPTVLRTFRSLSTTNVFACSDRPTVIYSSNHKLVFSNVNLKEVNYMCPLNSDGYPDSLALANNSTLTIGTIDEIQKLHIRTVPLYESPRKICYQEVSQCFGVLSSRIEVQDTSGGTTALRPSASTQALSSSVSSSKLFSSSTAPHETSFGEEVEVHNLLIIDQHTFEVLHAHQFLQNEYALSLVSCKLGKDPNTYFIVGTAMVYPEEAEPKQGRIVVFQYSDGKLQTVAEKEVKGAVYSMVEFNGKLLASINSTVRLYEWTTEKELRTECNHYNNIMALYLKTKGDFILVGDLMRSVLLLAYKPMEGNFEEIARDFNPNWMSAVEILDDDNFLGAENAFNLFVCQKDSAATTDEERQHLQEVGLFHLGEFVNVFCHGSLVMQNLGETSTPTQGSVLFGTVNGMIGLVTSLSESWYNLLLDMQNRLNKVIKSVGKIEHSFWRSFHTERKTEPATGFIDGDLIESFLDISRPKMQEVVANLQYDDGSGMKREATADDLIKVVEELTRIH

Chain of Ikaros (Q13422 whole entry): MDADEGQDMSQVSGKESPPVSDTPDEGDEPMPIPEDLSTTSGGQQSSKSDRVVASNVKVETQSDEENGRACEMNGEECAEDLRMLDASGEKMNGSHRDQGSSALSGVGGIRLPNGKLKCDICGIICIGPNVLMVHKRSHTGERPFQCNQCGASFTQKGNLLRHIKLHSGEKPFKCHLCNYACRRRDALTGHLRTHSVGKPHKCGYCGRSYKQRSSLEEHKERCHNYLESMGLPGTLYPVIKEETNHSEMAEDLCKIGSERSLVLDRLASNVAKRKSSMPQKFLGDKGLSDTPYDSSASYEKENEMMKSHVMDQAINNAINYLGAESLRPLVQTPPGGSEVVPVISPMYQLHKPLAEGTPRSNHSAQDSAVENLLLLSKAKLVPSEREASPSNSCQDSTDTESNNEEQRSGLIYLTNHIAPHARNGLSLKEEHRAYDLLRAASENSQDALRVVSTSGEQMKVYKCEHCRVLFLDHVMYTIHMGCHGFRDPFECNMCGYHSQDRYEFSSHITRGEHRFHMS
Chain of Ikaros (Q96SW2 whole entry): as the sequence (Q96SW2 whole entry) above
Chain of Ikaros (Q16531 whole entry partner): as the sequence (Q16531 whole entry partner) above

As to `O=C1CCC(N2Cc3cc(-c4ccc5c(n4)NC(=O)C5)ccc3C2=O)C(=O)N1` (centres unmarked) [Example 114, 3-(1-oxo-5-(2-oxo-2,3-dihydro-1H-pyrrolo[2,3-b]pyridin-6-yl)isoindolin-2-yl)piperidine-2,6-dione], the DC50 at Ikaros was no less than 10000 nM; at Helios, 1120 nM.

With `O=C1CCC(N2Cc3cc(-c4cc5c(cn4)CCCC5)ccc3C2=O)C(=O)N1` (centres unmarked) [Example 115, 3-(1-oxo-5-(5,6,7,8-tetrahydroisoquinolin-3-yl)isoindolin-2-yl)piperidine-2,6-dione], the DC50 worked out at 160 nM at Ikaros and 100 nM at Helios.

As for `Cc1ccc(-c2ccc3c(c2)CN(C2CCC(=O)NC2=O)C3=O)nc1N` (centres unmarked) [Example 116, 3-(5-(6-amino-5-methylpyridin-2-yl)-1-oxoisoindolin-2-yl)piperidine-2,6-dione], the DC50 at Ikaros was no less than 10000 nM; on Helios it was 170 nM.

As to `Nc1ccc(-c2ccc3c(c2)CN(C2CCC(=O)NC2=O)C3=O)nc1N` (centres unmarked) [Example 117, 3-(5-(5,6-diaminopyridin-2-yl)-1-oxoisoindolin-2-yl)piperidine-2,6-dione], the DC50 at Ikaros is no less than 10000 nM; on Helios it was 150 nM.

Turning to `O=C1CCC(N2Cc3cc(-c4ccc5c(n4)NCCN5)ccc3C2=O)C(=O)N1` (centres unmarked) [Example 118, 3-(1-oxo-5-(1,2,3,4-tetrahydropyrido[2,3-b]pyrazin-6-yl)isoindolin-2-yl)piperidine-2,6-dione], the DC50 at Ikaros is no less than 10000 nM; on Helios it was 180 nM.

With `Cc1cc(-c2ccc3c(c2)CN(C2CCC(=O)NC2=O)C3=O)nc(C)c1N` (centres unmarked) [Example 119, 3-(5-(5-amino-4,6-dimethylpyridin-2-yl)-1-oxoisoindolin-2-yl)piperidine-2,6-dione], the DC50 was no less than 10000 nM at Ikaros and 240 nM on Helios.

As for `Nc1cc(C(F)(F)F)cc(-c2ccc3c(c2)CN(C2CCC(=O)NC2=O)C3=O)n1` (centres unmarked) [Example 120, 3-(5-(6-amino-4-(trifluoromethyl)pyridin-2-yl)-1-oxoisoindolin-2-yl)piperidine-2,6-dione], the results for the DC50 at Ikaros and on Helios were no less than 10000 nM and 70 nM, respectively.

Consider `Cc1cnc(-c2ccc3c(c2)CN(C2CCC(=O)NC2=O)C3=O)cc1C` (centres unmarked) [Example 121, 3-(5-(4,5-dimethylpyridin-2-yl)-1-oxoisoindolin-2-yl)piperidine-2,6-dione], for which the DC50 at Ikaros stood at 1280 nM; on Helios, 40 nM.

For `O=C1CC[C@H](N2Cc3cc(-c4ccc5cccnc5n4)ccc3C2=O)C(=O)N1` [Example 122, (3S)-3-[5-(1,8-naphthyridin-2-yl)-1-oxo-2,3-dihydro-1H-isoindol-2-yl]piperidine-2,6-dione], the DC50 at Ikaros was no less than 20000 nM; at Helios it was 50 nM.

With `Nc1cc2ccccc2c(-c2ccc3c(c2)CN([C@H]2CCC(=O)NC2=O)C3=O)n1` [Example 123, (S)-3-(5-(3-aminoisoquinolin-1-yl)-1-oxoisoindolin-2-yl)piperidine-2,6-dione], the DC50 is no less than 20000 nM on Ikaros and 80 nM on Helios.

Turning to `CC(=O)Nc1cc2ccccc2c(-c2ccc3c(c2)CN([C@H]2CCC(=O)NC2=O)C3=O)n1` [Example 124, (S)—N-(1-(2-(2,6-dioxopiperidin-3-yl)-1-oxoisoindolin-5-yl)isoquinolin-3-yl)acetamide], the DC50 at Ikaros was no less than 20000 nM; on Helios, 80 nM.

On to `N#Cc1nc(-c2ccc3c(c2)CN([C@H]2CCC(=O)NC2=O)C3=O)cc2ccccc12` [Example 125, 3-{2-[(3 S)-2,6-dioxopiperidin-3-yl]-1-oxo-2,3-dihydro-1H-isoindol-5-yl}isoquinoline-1-carbonitrile], for which the DC50 at Ikaros is no less than 20000 nM; on Helios it was 40 nM.

`NC(=O)c1nc(-c2ccc3c(c2)CN([C@H]2CCC(=O)NC2=O)C3=O)cc2ccccc12` [Example 126, 3-{2-[(3S)-2,6-dioxopiperidin-3-yl]-1-oxo-2,3-dihydro-1H-isoindol-5-yl}isoquinoline-1-carboxamide]: the values for the DC50 at Ikaros and at Helios were no less than 20000 nM and 2990 nM, respectively.

For `CC(=O)O[C@H]1CCOc2nc(-c3ccc4c(c3)CN([C@H]3CCC(=O)NC3=O)C4=O)ccc21` [Example 127, (4S)-7-{2-[(3S)-2,6-dioxopiperidin-3-yl]-1-oxo-2,3-dihydro-1H-isoindol-5-yl}-2H,3H,4H-pyrano[2,3-b]pyridin-4-yl acetate], the DC50 is no less than 20000 nM at Ikaros and 7460 nM at Helios.

For `CC(=O)O[C@@H]1CCOc2nc(-c3ccc4c(c3)CN([C@H]3CCC(=O)NC3=O)C4=O)ccc21` [Example 128, (4R)-7-{2-[(3S)-2,6-dioxopiperidin-3-yl]-1-oxo-2,3-dihydro-1H-isoindol-5-yl}-2H,3H,4H-pyrano[2,3-b]pyridin-4-yl acetate], the DC50 at Ikaros was no less than 20000 nM; at Helios it was 2830 nM.

Consider `CN(C)c1cnc(-c2ccc3c(c2)CN(C2CCC(=O)NC2=O)C3=O)c2cc(Cl)ccc12` (centres unmarked) [Example 129, 3-{5-[7-chloro-4-(dimethylamino)isoquinolin-1-yl]-1-oxo-2,3-dihydro-1H-isoindol-2-yl}piperidine-2,6-dione], for which the DC50 at Ikaros was found to be 90 nM; on Helios, 10 nM.

For `CN(C)C(=O)c1c(-c2ccc3c(c2)CN(C2CCC(=O)NC2=O)C3=O)nc(N)c2ccccc12` (centres unmarked) [Example 130, 1-amino-3-[2-(2,6-dioxopiperidin-3-yl)-1-oxo-2,3-dihydro-1H-isoindol-5-yl]-N,N-dimethylisoquinoline-4-carboxamide], the values for the DC50 on Ikaros and on Helios were no less than 20000 nM and 450 nM, respectively.

For the molecule `Cc1c(-c2ccc3c(c2)CN(C2CCC(=O)NC2=O)C3=O)nc(N)c2ccccc12` (centres unmarked) [Example 131, 3-[5-(1-amino-4-methylisoquinolin-3-yl)-1-oxo-2,3-dihydro-1H-isoindol-2-yl]piperidine-2,6-dione], the DC50 at Ikaros is no less than 20000 nM; on Helios, 140 nM.

Consider `Nc1ccc(C2CC2)c(-c2ccc3c(c2)CN(C2CCC(=O)NC2=O)C3=O)n1` (centres unmarked) [Example 132, 3-[5-(6-amino-3-cyclopropylpyridin-2-yl)-1-oxo-2,3-dihydro-1H-isoindol-2-yl]piperidine-2,6-dione], for which the DC50 at Ikaros was no less than 20000 nM; on Helios, 20 nM.

Take `Nc1ccc2c(-c3ccc4c(c3)CN(C3CCC(=O)NC3=O)C4=O)nccc2c1` (centres unmarked) [Example 133, 3-[5-(6-aminoisoquinolin-1-yl)-1-oxo-2,3-dihydro-1H-isoindol-2-yl]piperidine-2,6-dione]: the results for the DC50 at Ikaros and on Helios were no less than 20000 nM and 10 nM, respectively.

In the case of `CC(=O)Nc1ccc2c(-c3ccc4c(c3)CN(C3CCC(=O)NC3=O)C4=O)nccc2c1` (centres unmarked) [Example 134, N-{1-[2-(2,6-dioxopiperidin-3-yl)-1-oxo-2,3-dihydro-1H-isoindol-5-yl]isoquinolin-6-yl}acetamide], the figures for the DC50 at Ikaros and on Helios were no less than 20000 nM and 100 nM, respectively.

For the molecule `Nc1cc(CCl)cc(-c2ccc3c(c2)CN(C2CCC(=O)NC2=O)C3=O)n1` (centres unmarked) [Example 135, 3-{5-[6-amino-4-(chloromethyl)pyridin-2-yl]-1-oxo-2,3-dihydro-1H-isoindol-2-yl}piperidine-2,6-dione], the results for the DC50 on Ikaros and at Helios were no less than 10000 nM and 230 nM, respectively.

On to `O=C1CCC(N2Cc3cc(-c4ccc5c(n4)NCCCC5)ccc3C2=O)C(=O)N1` (centres unmarked) [Example 136, 3-(1-oxo-5-{5H,6H,7H,8H,9H-pyrido[2,3-b]azepin-2-yl}-2,3-dihydro-1H-isoindol-2-yl) piperidine-2,6-dione], for which the DC50 at Ikaros is no less than 10000 nM; at Helios it was 290 nM.

In the case of `O=C1CCC(N2Cc3cc(-c4ccc5c(n4)NCCC5)ccc3C2=O)C(=O)N1` (centres unmarked) [Example 137, 3-[1-oxo-5-(5,6,7,8-tetrahydro-1,8-naphthyridin-2-yl)-2,3-dihydro-1H-isoindol-2-yl]piperidine-2,6-dione], the DC50 on Ikaros was no less than 10000 nM; at Helios, 10 nM.

For the molecule `CN(C)Nc1cccc(-c2ccc3c(c2)CN(C2CCC(=O)NC2=O)C3=O)n1` (centres unmarked) [Example 138, 3-{5-[6-(2,2-dimethylhydrazin-1-yl)pyridin-2-yl]-1-oxo-2,3-dihydro-1H-isoindol-2-yl}piperidine-2,6-dione], the DC50 on Ikaros was no less than 10000 nM; at Helios, 920 nM.

In the case of `O=C1CCC(N2Cc3cc(-c4ccc5[nH]cnc5n4)ccc3C2=O)C(=O)N1` (centres unmarked) [Example 139, 3-(5-(1H-imidazo[4,5-b]pyridin-5-yl)-1-oxoisoindolin-2-yl)piperidine-2,6-dione], the DC50 was no less than 20000 nM on Ikaros and 4160 nM on Helios.

As to `Cc1cc(N)nc(-c2ccc3c(c2)CN(C2CCC(=O)NC2=O)C3=O)c1` (centres unmarked) [Example 140, 3-(5-(6-amino-4-methylpyridin-2-yl)-1-oxoisoindolin-2-yl)piperidine-2,6-dione], the values for the DC50 on Ikaros and at Helios were no less than 20000 nM and 20 nM, respectively.

Regarding `O=C1CCC(N2Cc3cc(-c4ccc5c(n4)NCCO5)ccc3C2=O)C(=O)N1` (centres unmarked) [Example 141, 3-(5-(3,4-dihydro-2H-pyrido[3,2-b][1,4]oxazin-6-yl)-1-oxoisoindolin-2-yl)piperidine-2,6-dione], the results for the DC50 on Ikaros and on Helios were no less than 20000 nM and 80 nM, respectively.

Regarding `Nc1cncc(-c2ccc3c(c2)CN(C2CCC(=O)NC2=O)C3=O)n1` (centres unmarked) [Example 142, 3-(5-(6-aminopyrazin-2-yl)-1-oxoisoindolin-2-yl)piperidine-2,6-dione], the DC50 on Ikaros was no less than 20000 nM; on Helios, 1350 nM.

In the case of `Cc1cc(-c2ccc3c(c2)CN(C2CCC(=O)NC2=O)C3=O)nc(N)n1` (centres unmarked) [Example 143, 3-(5-(2-amino-6-methylpyrimidin-4-yl)-1-oxoisoindolin-2-yl)piperidine-2,6-dione], the figures for the DC50 on Ikaros and on Helios were no less than 20000 nM and 610 nM, respectively.

On to `Cc1cc(C)nc(-c2ccc3c(c2)CN(C2CCC(=O)NC2=O)C3=O)c1` (centres unmarked) [Example 144, 3-(5-(4,6-dimethylpyridin-2-yl)-1-oxoisoindolin-2-yl)piperidine-2,6-dione], for which the results for the DC50 at Ikaros and at Helios were no less than 20000 nM and 83 nM, respectively.
